Reference: US5565342A (priority 1989, dated 1996)

These molecules were tested on RON substance synthetase (assay: Inhibition and activation of the enzyme by metal chlorides). Settings: 1 mM metal chloride; not added = 100; 30 min.
Type: biochemical, Leuconostoc mesenteroides subsp. dextranicum, BL-75
Method: A substrate solution comprising sucrose (60 w/v %) and an acetate buffer (0.3M, pH 5.5), which was warmed to 30° C. in advance, was mixed with an enzyme solution (0.5 to 1 U/ml) warmed to 30° C. in an amount 4 times the amount of the substrate solution, and the mixture was sufficiently stirred and the reaction was carried out at 30° C. for 30 minutes. To the reaction mixture a 40 mM of NaOH solution was added in an amount 5 times of the amount of the reaction mixture to stop the reaction. The reaction-stopped mixture was appropriately diluted and reducing sugar was determined as fructose by the Somogyi method [M. Somogyi, J. Biol. Chem., 160, 61 (1945)]. As the control, reducing sugar in the enzyme reaction-stopped mixture treated in the same manner without adding sucrose was determined as fructose, and correction was carried out. The quantity of sucrose participating in the reaction was determined from the quantity of fructose.
The relative activities at the addition of the different metal chlorides in the final concentration of 1 mM were determined by the standard method. The relative value was expressed in percent comparing with the activity without addition of any metal chloride.
In the case of [Ca+2].[Cl-].[Cl-] [CaCl2], the “Relative Activity” value is reported as 110%. For [Cl-].[Cl-].[Co+2] [CoCl2], the “Relative Activity” value was 95%. In the case of [Cl][Cu][Cl] [CuCl2], the “Relative Activity” value is reported as 50%. In the case of [Cl][Fe][Cl] [FeCl2], the “Relative Activity” value is reported as 103%. In the case of [Cl][Fe]([Cl])[Cl] [FeCl3], the “Relative Activity” value is reported as 82%. In the case of [Cl-].[Cl-].[Mg+2] [MgCl2], the “Relative Activity” value is reported as 78%. In the case of [Cl][Mn][Cl] [MnCl2], the “Relative Activity” value is reported as 75%. With [Cl][Ni][Cl] [NiCl2] the “Relative Activity” value was 98%. For [Cl-].[Cl-].[Zn+2] [ZnCl2], the “Relative Activity” value was 93%.

What follows are molecules tested on RON substance synthetase (assay: Substrate specificity of the enzyme). Settings: as substrate of the enzyme.
Type: biochemical, Leuconostoc mesenteroides subsp. dextranicum, BL-75
With OC[C@H]1O[C@H](O[C@H]2[C@H](O)[C@@H](O)C(O)O[C@@H]2CO)[C@H](O)[C@@H](O)[C@@H]1O (mixture of isomers) [maltose] the “Formation of the RON substance (substrate specificity)” value (from here on “Formation of the RON substance”) was “not observed”. For O=C(CO)[C@@H](O)[C@H](O)[C@H](O)CO [fructose], the “Formation of the RON substance” value was “not observed”. In the case of OC[C@H]1OC(O)[C@H](O)[C@@H](O)[C@@H]1O (some centres unmarked) [glucose], the “Formation of the RON substance” value is reported as “not observed”. With OC[C@H]1O[C@H](OC[C@H]2OC(O)[C@H](O)[C@@H](O)[C@@H]2O)[C@H](O)[C@@H](O)[C@@H]1O (some centres unmarked) [isomaltose] the “Formation of the RON substance” value was “not observed”. For OC[C@H]1O[C@@](CO)(O[C@H]2O[C@H](CO)[C@@H](O)[C@H](O)[C@H]2O)[C@@H](O)[C@@H]1O [sucrose], the “Formation of the RON substance” value was “reacts only with sucrose”.
